Laboratory results published in patent US20260242419A1, “A CYCLIC PEPTIDE FOR TRAPPING INTERLEUKIN-1 BETA” (Merck Sharp & Dohme LLC, priority 2023, published 2026).
Starred links: 1 amine or outer side, 2 acyl side, 3 side chain; linkers in the order of their positions; H or OH if unused. Non-standard residues stand in square brackets, D forms with d. Residues, ends and D or L forms follow the SMILES beside them. dPro(4R-(4-pyridylmethyl)) = O=C(O)[C@H]1C[C@@H](Cc2ccncc2)CN1; Trp(βS-Me,4-F) = C[C@@H](c1c[nH]c2cccc(F)c12)[C@H](N)C(=O)O; Bip(4'-COOH) = N[C@@H](Cc1ccc(-c2ccc(C(=O)O)cc2)cc1)C(=O)O; X4 = O=C([C@H]1[C@@H](Cc2ccncc2)CCN1[*:1])[*:2]; Ala(pyrimidin-5-yl) = N[C@@H](Cc1cncnc1)C(=O)O; Phe(4-COOH) = N[C@@H](Cc1ccc(C(=O)O)cc1)C(=O)O; Nva(5,5,5-F3) = N[C@@H](CCC(F)(F)F)C(=O)O; Pro(cis-4-F) = O=C(O)[C@@H]1C[C@H](F)CN1; X46 = O=C([C@@H](Cc1cncnc1)N[*:1])[*:2]; dPhe(4-F) = N[C@H](Cc1ccc(F)cc1)C(=O)O; Dap(CONH2) = NC(=O)NC[C@H](N)C(=O)O; d(αMeD) = C[C@@](N)(CC(=O)O)C(=O)O; 4Pal = N[C@@H](Cc1ccncc1)C(=O)O; d3Pal = N[C@H](Cc1cccnc1)C(=O)O; dCha = N[C@H](CC1CCCCC1)C(=O)O; NMeDab = CN[C@@H](CCN)C(=O)O; dCba = N[C@H](CC1CCC1)C(=O)O; Dab = NCC[C@H](N)C(=O)O; Nva = CCC[C@H](N)C(=O)O; Aib = CC(C)(N)C(=O)O

Each molecule was assayed against T1, IL-1β (Homo sapiens, UniProt P01584) (assay: IL-6 assay in MRC5 cells: inhibition of IL-1β induced IL-6 secretion (AlphaLISA)). Conditions: inhibition of IL-1β induced IL-6 secretion in MRC5 cells; compound pre-incubated 1 hour with recombinant human IL-1β; read-out: MRC5 IC50.
T1 construct: purchased BioLegend 579404
T1 sequence (P01584 117-269): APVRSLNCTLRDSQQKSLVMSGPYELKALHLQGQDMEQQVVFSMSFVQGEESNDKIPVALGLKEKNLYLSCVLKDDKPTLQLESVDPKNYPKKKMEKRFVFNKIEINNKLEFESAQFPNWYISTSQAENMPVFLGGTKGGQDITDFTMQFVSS
Format: cell-based
Summary of the method: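 Compound was pre-incubated 1 h at ambient temperature with recombinant human IL-1β at 2λ EC80 before adding human lung fibroblast MRC5 cells (3000/well) in EMEM with 0.025% BSA. After overnight culture at 37 °C, 5% CO2, secreted IL-6 in conditioned medium was measured by AlphaLISA; IC50 from 4-parameter logistic fits.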
`C[C@@H](c1c[nH]c2cccc(F)c12)[C@@H]1NC(=O)[C@@H]2C[C@H](F)CN2C(=O)CNC(=O)[C@H](Cc2ccc(C(=O)O)cc2)NC(=O)[C@H](Cc2ccncc2)NC(=O)[C@H](Cc2ccc(-c3ccc(C(=O)O)cc3)cc2)NC(=O)[C@H]2[C@@H](Cc3ccncc3)CCN2C(=O)CNC(=O)[C@H](CNC(N)=O)NC(=O)[C@H](CCC(N)=O)NC(=O)[C@H](Cc2cncnc2)NC(=O)[C@@](C)(CC(=O)O)NC(=O)[C@H](Cc2c[nH]c3ccccc23)NC(=O)[C@H](CO)NC(=O)C(C)(C)NC1=O` [Example 230] (cyclo([Bip(4'-COOH)][4Pal][Phe(4-COOH)]G[Pro(cis-4-F)][Trp(βS-Me,4-F)][Aib]SW[d(αMeD)][Ala(pyrimidin-5-yl)]Q[Dap(CONH2)]G[X4])) showed an IC50 of 22 pM.
`CCC[C@@H]1NC(=O)[C@@](C)(CC(=O)O)NC(=O)[C@H](Cc2c[nH]c3ccccc23)NC(=O)[C@H](CO)NC(=O)C(C)(C)NC(=O)[C@H]([C@@H](C)c2c[nH]c3cccc(F)c23)NC(=O)[C@@H]2C[C@H](F)CN2C(=O)CNC(=O)[C@H](Cc2ccc(C(=O)O)cc2)NC(=O)[C@H](Cc2ccncc2)NC(=O)[C@H](Cc2ccc(-c3ccc(C(=O)O)cc3)cc2)NC(=O)[C@H]2[C@@H](Cc3ccncc3)CCN2C(=O)CNC(=O)[C@H](CCN)NC(=O)[C@H](CCC(N)=O)NC1=O` [Example 231] (cyclo([Bip(4'-COOH)][4Pal][Phe(4-COOH)]G[Pro(cis-4-F)][Trp(βS-Me,4-F)][Aib]SW[d(αMeD)][Nva]Q[Dab]G[X4])) gave an IC50 of 27 pM.
`C[C@@H](c1c[nH]c2cccc(F)c12)[C@@H]1NC(=O)[C@@H]2C[C@H](F)CN2C(=O)CNC(=O)[C@H](Cc2ccc(C(=O)O)cc2)NC(=O)[C@H](Cc2ccncc2)NC(=O)[C@H](Cc2ccc(-c3ccc(C(=O)O)cc3)cc2)NC(=O)[C@H]2[C@@H](Cc3ccncc3)CCN2C(=O)CNC(=O)[C@H](CCN)NC(=O)[C@H](CCC(N)=O)NC(=O)[C@H](CCC(F)(F)F)NC(=O)[C@@](C)(CC(=O)O)NC(=O)[C@H](Cc2c[nH]c3ccccc23)NC(=O)[C@H](CO)NC(=O)C(C)(C)NC1=O` [Example 232] (cyclo([Bip(4'-COOH)][4Pal][Phe(4-COOH)]G[Pro(cis-4-F)][Trp(βS-Me,4-F)][Aib]SW[d(αMeD)][Nva(5,5,5-F3)]Q[Dab]G[X4])) gave an IC50 of 22 pM.
For `C[C@@H](c1c[nH]c2cccc(F)c12)[C@@H]1NC(=O)[C@@H]2C[C@H](F)CN2C(=O)CNC(=O)[C@H](Cc2ccc(C(=O)O)cc2)NC(=O)[C@H](Cc2ccncc2)NC(=O)[C@H](Cc2ccc(-c3ccc(C(=O)O)cc3)cc2)NC(=O)[C@H]2[C@@H](Cc3ccncc3)CCN2C(=O)CNC(=O)[C@H](CCN)NC(=O)[C@H](CCC(N)=O)NC(=O)[C@@H](Cc2cncnc2)NC(=O)C(C)(C)NC(=O)[C@H](Cc2c[nH]c3ccccc23)NC(=O)[C@H](CO)NC(=O)C(C)(C)NC1=O` [Example 233] (cyclo([Bip(4'-COOH)][4Pal][Phe(4-COOH)]G[Pro(cis-4-F)][Trp(βS-Me,4-F)][Aib]SW[Aib][X46]Q[Dab]G[X4])), the IC50 was 30 pM.
`C[C@@H](c1c[nH]c2cccc(F)c12)[C@@H]1NC(=O)[C@@H]2C[C@H](F)CN2C(=O)CNC(=O)[C@H](Cc2ccc(C(=O)O)cc2)NC(=O)[C@H](Cc2ccncc2)NC(=O)[C@H](Cc2ccc(-c3ccc(C(=O)O)cc3)cc2)NC(=O)[C@H]2[C@@H](Cc3ccncc3)CCN2C(=O)CNC(=O)[C@H](CCN)NC(=O)[C@H](CCC(N)=O)NC(=O)[C@@H](CC(=O)O)NC(=O)C(C)(C)NC(=O)[C@H](Cc2c[nH]c3ccccc23)NC(=O)[C@H](CO)NC(=O)C(C)(C)NC1=O` [Example 234] (cyclo([Bip(4'-COOH)][4Pal][Phe(4-COOH)]G[Pro(cis-4-F)][Trp(βS-Me,4-F)][Aib]SW[Aib][dD]Q[Dab]G[X4])) gave an IC50 of 24 pM.
For `C[C@@H](c1c[nH]c2cccc(F)c12)[C@@H]1NC(=O)[C@@H]2C[C@H](F)CN2C(=O)CNC(=O)[C@H](Cc2ccc(C(=O)O)cc2)NC(=O)[C@H](Cc2ccncc2)NC(=O)[C@H](Cc2ccc(-c3ccc(C(=O)O)cc3)cc2)NC(=O)[C@H]2[C@@H](Cc3ccncc3)CCN2C(=O)CNC(=O)[C@H](CCN)N(C)C(=O)[C@H](CCC(N)=O)NC(=O)[C@H](Cc2cncnc2)NC(=O)[C@@](C)(CC(=O)O)NC(=O)[C@H](Cc2c[nH]c3ccccc23)NC(=O)[C@H](CO)NC(=O)C(C)(C)NC1=O` [Example 235] (cyclo([Bip(4'-COOH)][4Pal][Phe(4-COOH)]G[Pro(cis-4-F)][Trp(βS-Me,4-F)][Aib]SW[d(αMeD)][Ala(pyrimidin-5-yl)]Q[NMeDab]G[X4])), the IC50 was 18 pM.
Work on `C[C@@H](c1c[nH]c2cccc(F)c12)[C@@H]1NC(=O)[C@@H]2C[C@H](F)CN2C(=O)CNC(=O)[C@H](Cc2ccc(C(=O)O)cc2)NC(=O)[C@H](Cc2ccncc2)NC(=O)[C@H](Cc2ccc(-c3ccc(C(=O)O)cc3)cc2)NC(=O)[C@H]2[C@@H](Cc3ccncc3)CCN2C(=O)CNC(=O)[C@H](CCN)NC(=O)[C@H](CCC(N)=O)NC(=O)[C@@H](Cc2ccc(F)cc2)NC(=O)[C@@](C)(CC(=O)O)NC(=O)[C@H](Cc2c[nH]c3ccccc23)NC(=O)[C@H](CO)NC(=O)C(C)(C)NC1=O` [Example 236] (cyclo([Bip(4'-COOH)][4Pal][Phe(4-COOH)]G[Pro(cis-4-F)][Trp(βS-Me,4-F)][Aib]SW[d(αMeD)][dPhe(4-F)]Q[Dab]G[X4])) yielded an IC50 of 21 pM.
`C[C@@H](c1c[nH]c2cccc(F)c12)[C@@H]1NC(=O)[C@@H]2C[C@H](F)CN2C(=O)CNC(=O)[C@H](Cc2ccc(C(=O)O)cc2)NC(=O)[C@H](Cc2ccncc2)NC(=O)[C@H](Cc2ccc(-c3ccc(C(=O)O)cc3)cc2)NC(=O)[C@H]2[C@@H](Cc3ccncc3)CCN2C(=O)CNC(=O)[C@H](CCN)NC(=O)[C@H](CCC(N)=O)NC(=O)[C@@H](CC2CCCCC2)NC(=O)[C@@](C)(CC(=O)O)NC(=O)[C@H](Cc2c[nH]c3ccccc23)NC(=O)[C@H](CO)NC(=O)C(C)(C)NC1=O` [Example 237] (cyclo([Bip(4'-COOH)][4Pal][Phe(4-COOH)]G[Pro(cis-4-F)][Trp(βS-Me,4-F)][Aib]SW[d(αMeD)][dCha]Q[Dab]G[X4])) was tested, and the IC50 was 25 pM.
`CC(C)C[C@H]1NC(=O)[C@@](C)(CC(=O)O)NC(=O)[C@H](Cc2c[nH]c3ccccc23)NC(=O)[C@H](CO)NC(=O)C(C)(C)NC(=O)[C@H]([C@@H](C)c2c[nH]c3cccc(F)c23)NC(=O)[C@@H]2C[C@H](F)CN2C(=O)CNC(=O)[C@H](Cc2ccc(C(=O)O)cc2)NC(=O)[C@H](Cc2ccncc2)NC(=O)[C@H](Cc2ccc(-c3ccc(C(=O)O)cc3)cc2)NC(=O)[C@H]2[C@@H](Cc3ccncc3)CCN2C(=O)CNC(=O)[C@H](CCN)NC(=O)[C@H](CCC(N)=O)NC1=O` [Example 238] (cyclo([Bip(4'-COOH)][4Pal][Phe(4-COOH)]G[Pro(cis-4-F)][Trp(βS-Me,4-F)][Aib]SW[d(αMeD)][dL]Q[Dab]G[X4])) gave an IC50 of 24 pM.
`C[C@@H](c1c[nH]c2cccc(F)c12)[C@@H]1NC(=O)[C@@H]2C[C@H](F)CN2C(=O)CNC(=O)[C@H](Cc2ccc(C(=O)O)cc2)NC(=O)[C@H](Cc2ccncc2)NC(=O)[C@H](Cc2ccc(-c3ccc(C(=O)O)cc3)cc2)NC(=O)[C@H]2[C@@H](Cc3ccncc3)CCN2C(=O)CNC(=O)[C@H](CCN)NC(=O)[C@H](CCC(N)=O)NC(=O)[C@@H](CC2CCC2)NC(=O)[C@@](C)(CC(=O)O)NC(=O)[C@H](Cc2c[nH]c3ccccc23)NC(=O)[C@H](CO)NC(=O)C(C)(C)NC1=O` [Example 239] (cyclo([Bip(4'-COOH)][4Pal][Phe(4-COOH)]G[Pro(cis-4-F)][Trp(βS-Me,4-F)][Aib]SW[d(αMeD)][dCba]Q[Dab]G[X4])) showed an IC50 of 20 pM.
`C[C@@H](c1c[nH]c2cccc(F)c12)[C@@H]1NC(=O)[C@@H]2C[C@H](F)CN2C(=O)CNC(=O)[C@H](Cc2ccc(C(=O)O)cc2)NC(=O)[C@H](Cc2ccncc2)NC(=O)[C@H](Cc2ccc(-c3ccc(C(=O)O)cc3)cc2)NC(=O)[C@H]2[C@@H](Cc3ccncc3)CCN2C(=O)CNC(=O)[C@H](CCN)NC(=O)[C@H](CCC(N)=O)NC(=O)[C@@H](Cc2cccnc2)NC(=O)[C@@](C)(CC(=O)O)NC(=O)[C@H](Cc2c[nH]c3ccccc23)NC(=O)[C@H](CO)NC(=O)C(C)(C)NC1=O` [Example 240] (cyclo([Bip(4'-COOH)][4Pal][Phe(4-COOH)]G[Pro(cis-4-F)][Trp(βS-Me,4-F)][Aib]SW[d(αMeD)][d3Pal]Q[Dab]G[X4])) showed an IC50 of 25 pM.
Molecule `C[C@@H](c1c[nH]c2cccc(F)c12)[C@@H]1NC(=O)[C@@H]2C[C@H](F)CN2C(=O)CNC(=O)[C@H](Cc2ccc(C(=O)O)cc2)NC(=O)[C@H](Cc2ccncc2)NC(=O)[C@H](Cc2ccc(-c3ccc(C(=O)O)cc3)cc2)NC(=O)[C@H]2[C@@H](Cc3ccncc3)CCN2C(=O)CNC(=O)[C@H](CCN)N(C)C(=O)[C@H](CCC(N)=O)NC(=O)[C@H](Cc2cncnc2)NC(=O)C(C)(C)NC(=O)[C@H](Cc2c[nH]c3ccccc23)NC(=O)[C@H](CO)NC(=O)C(C)(C)NC1=O` [Example 241] (cyclo([Bip(4'-COOH)][4Pal][Phe(4-COOH)]G[Pro(cis-4-F)][Trp(βS-Me,4-F)][Aib]SW[Aib][Ala(pyrimidin-5-yl)]Q[NMeDab]G[X4])) has an IC50 of 18 pM.
For `C[C@@H](c1c[nH]c2cccc(F)c12)[C@@H]1NC(=O)[C@@H]2C[C@H](F)CN2C(=O)CNC(=O)[C@H](Cc2ccc(C(=O)O)cc2)NC(=O)[C@H](Cc2ccncc2)NC(=O)[C@H](Cc2ccc(-c3ccc(C(=O)O)cc3)cc2)NC(=O)[C@H]2C[C@@H](Cc3ccncc3)CN2C(=O)CNC(=O)[C@H](CCN)NC(=O)[C@H](CCC(N)=O)NC(=O)[C@@H](CO)NC(=O)[C@@](C)(CC(=O)O)NC(=O)[C@H](Cc2c[nH]c3ccccc23)NC(=O)[C@H](CO)NC(=O)C(C)(C)NC1=O` [Example 242] (cyclo([Bip(4'-COOH)][4Pal][Phe(4-COOH)]G[Pro(cis-4-F)][Trp(βS-Me,4-F)][Aib]SW[d(αMeD)][dS]Q[Dab]G[dPro(4R-(4-pyridylmethyl))])), the IC50 was 19 pM.
